Measurements reported in article PMC12720774, “Detergents alter the stability and lipid binding properties of the CD1d immunoreceptor” (Protein Science : A Publication of the Protein Society, 2025).
Values joined by “and” are separate entries in the source; they are usually repeats but may differ in a detail not shown here. Equal entries are not always repeated.

Experiments:
hCD1d = hCD1d (Homo sapiens, UniProt P15813+P61769); assay: Detergent competition with 18:1 LPC binding to hCD1d (ITF, MST, nanoDSF); design: TEV protease cleavage site ENLYFQS (C); BirA biotinylation site (C); His7 (C); made in house; host or cells: TurboCHO cells (GenScript); settings: 0.05% detergent
Sequence of hCD1d (P61769+P15813 fused): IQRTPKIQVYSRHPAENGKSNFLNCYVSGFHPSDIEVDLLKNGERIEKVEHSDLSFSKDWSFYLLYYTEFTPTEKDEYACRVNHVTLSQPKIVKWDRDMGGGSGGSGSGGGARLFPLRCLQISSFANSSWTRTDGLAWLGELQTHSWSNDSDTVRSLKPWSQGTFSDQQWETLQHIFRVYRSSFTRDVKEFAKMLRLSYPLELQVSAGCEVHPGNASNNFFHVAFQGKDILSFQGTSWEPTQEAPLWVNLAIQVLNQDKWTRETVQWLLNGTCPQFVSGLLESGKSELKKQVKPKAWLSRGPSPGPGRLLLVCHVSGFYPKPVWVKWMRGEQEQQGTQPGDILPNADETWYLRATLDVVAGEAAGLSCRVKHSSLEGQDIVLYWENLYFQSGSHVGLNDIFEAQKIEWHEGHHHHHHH
Description: We selected 18:1 LPC for the competition experiments since, first, a structure with hCD1d has been well characterized, and second, it binds hCD1d with moderate micromolar affinity, which is representative of many endogenous lipid antigens (Cantu et al., [2003]; López‐Sagaseta et al., [2012]). In the absence of detergent, 18:1 LPC produced concentration‐dependent changes in ITF and MST signal and decreased the melting temperature of hCD1d (ΔT m = −8.1 ± 1.7°C), indicative of specific binding and hCD1d destabilization (Figure 7c–e).
ITF spectra were recorded from 300 to 500 nm using a Horiba FL3‐21 Fluorometer with the excitation wavelength of 285 nm and excitation/emission slits of 6.2 nm. Fluorescence spectra of 50 to 100 nM hCD1d were acquired in the absence and presence of detergents in 1X PBS pH 7.4 at 25°C. Prior to data acquisition, hCD1d and detergent or lipid samples were incubated at 37°C overnight (~12 h) to simulate in vitro and in vivo loading conditions. […] For 18:1 LPC experiments, fluorescence spectra of 100 nM hCD1d were acquired in the absence and presence of 18:1 LPC in 1X PBS pH 7.4 at 25°C. […] For all ITF experiments, the change in fluorescence signal (F − F 0/F 0) was determined at 335 nm. Three replicates were performed, and data are presented as the mean ± standard deviation (n = 3). K D values were fitted with non‐linear regression in GraphPad Prism v10.1. […]

[1] = target: T1, CSP 319‐328/HLA‐B*08:01/hβ2M complex (Homo sapiens, UniProt P01889, A93T/A95T/D138N/E176V/E187T/K202T/Q94N/R180D/S35A/V36M/Y33D/Y91F); assay: ITF with peptide/HLA complex; assay type: binding; settings: for ITF change in Trp fluorescence (F-F0/F0): peptide/HLA with ODG, replicates
T1 construct: made in house
Text: (§1) To determine whether detergent effects were specific to hCD1d, we performed analogous ITF, MST, and nanoDSF experiments with a peptide/HLA complex. HLA‐B*08:01, presenting the Plasmodium falciparum derived peptide […] ([…]), was selected as a representative model system since the peptide antigen contains hydrophilic solvent‐exposed residues in the antigen‐binding groove (Frooman et al., [2025]). Although structurally similar to that of hCD1d, HLA‐B*08:01 shares low sequence identity (Figure S10a). […] By nanoDSF, ODG caused minimal destabilization of either complex (ΔT m≈−0.2 to −0.8°C; Figure S10f). […] We posit that lipid‐specific unloading effects of detergent are due to either hydrophobic residues in the antigen binding groove (detergent‐CD1d interactions) and/or the hydrophobic nature of the lipid antigen (detergent‐lipid interactions).
(§2) For comparison with peptide/HLA molecules, we prepared recombinant CSP 319‐328/HLA‐B*08:01/hβ2M complex using in vitro refolding methods fully described previously (Frooman et al., [2025]). The peptide sequence for CSP 319–328 is […]. This peptide was chosen since it contains Lys, Gln, and Asp residues predicted to be solvent‐exposed in the HLA‐B*08:01 binding groove (Frooman et al., [2025]).
ITF experiments with peptide/HLA molecules and detergents were performed using an analogous protocol.

[2] = target: T1, CSP 319‐328/HLA‐B*08:01/hβ2M complex; assay: MST with peptide/HLA complex; assay type: binding; settings: for MST normalized fluorescence signal (Fnorm): peptide/HLA with ODG, replicates
Text: as §1, §2
MST experiments with peptide/HLA molecules and detergents were performed using an analogous protocol.

[3] = concentration 0.00625 (unit not given)
[4] = concentration 0.0125 (unit not given)
[5] = concentration 0.025 (unit not given)

SMILES: C[C@H](CCC(=O)NCCC[N+](C)(C)CCCS(=O)(=O)[O-])[C@H]1CC[C@H]2[C@@H]3[C@H](O)C[C@@H]4C[C@H](O)CC[C@]4(C)[C@H]3C[C@H](O)[C@]12C [CHAPS, 3‐((3‐cholamidopropyl) dimethylammonio)‐1‐propanesulfonate]
- effect of detergent on 18:1 LPC binding to hCD1d (in words) (hCD1d): did not robustly outcompete binding

SMILES: CCCCCCCCO[C@@H]1O[C@H](CO)[C@@H](O)[C@H](O)[C@H]1O [ODG, n‐octyl‐β‐D‐glucopyranoside]
- ITF fluorescence change with peptide/HLA (in words) [1]: minimal concentration‐dependent fluorescence changes
- ITF change in Trp fluorescence (F-F0/F0) ([1]; concentration 1.53e-6 (unit not given)): 0
- ITF change in Trp fluorescence (F-F0/F0) ([1]; concentration 3.05e-6 (unit not given)): 0.00207 and -0.125 and -0.0308
- ITF change in Trp fluorescence (F-F0/F0) ([1]; concentration 6.1e-6 (unit not given)): 0.0103 and -0.142 and -0.0188
- ITF change in Trp fluorescence (F-F0/F0) ([1]; concentration 1.22e-5 (unit not given)): 0.0112 and -0.132 and -0.0414
- ITF change in Trp fluorescence (F-F0/F0) ([1]; concentration 2.44e-5 (unit not given)): 0.0406 and -0.126 and -0.0165
- ITF change in Trp fluorescence (F-F0/F0) ([1]; concentration 4.88e-5 (unit not given)): -0.113 and -0.0115 and 0.0922
- ITF change in Trp fluorescence (F-F0/F0) ([1]; concentration 9.77e-5 (unit not given)): -0.121 and -0.135 and 0.0848
- ITF change in Trp fluorescence (F-F0/F0) ([1]; concentration 0.000195 (unit not given)): 0.0173 and -0.126 and -0.052
- ITF change in Trp fluorescence (F-F0/F0) ([1]; concentration 0.000391 (unit not given)): 0.0313 and -0.107 and -0.0351
- ITF change in Trp fluorescence (F-F0/F0) ([1]; concentration 0.000781 (unit not given)): -0.0702 and -0.0972 and -0.0274
- ITF change in Trp fluorescence (F-F0/F0) ([1]; concentration 0.00156 (unit not given)): -0.063 and -0.0903 and -0.0215
- ITF change in Trp fluorescence (F-F0/F0) ([1]; concentration 0.00313 (unit not given)): 0.0779 and 0.0569 and 0.00937
- ITF change in Trp fluorescence (F-F0/F0) [1, 3]: 0.0158 and 0.129 and 0.219
- ITF change in Trp fluorescence (F-F0/F0) [1, 4]: 0.00491 and 0.00219 and 0.25
- ITF change in Trp fluorescence (F-F0/F0) [1, 5]: 0.118 and 0.242 and 0.374
- Kd ([2]; 100 nM AF647‐labeled peptide/HLA, 25°C, read-out: K D (MST), peptide/HLA): 3.97 ± 0.29 mM
- MST normalized fluorescence signal (Fnorm) ([2]; concentration 1.52588e-6 (unit not given)): 823.198 and 827.76 and 828.811
- MST normalized fluorescence signal (Fnorm) ([2]; concentration 3.05176e-6 (unit not given)): 822.943 and 827.867 and 830.525
- MST normalized fluorescence signal (Fnorm) ([2]; concentration 6.10352e-6 (unit not given)): 822.246 and 827.784 and 829.217
- MST normalized fluorescence signal (Fnorm) ([2]; concentration 1.2207e-5 (unit not given)): 822.018 and 826.127 and 829.204
- MST normalized fluorescence signal (Fnorm) ([2]; concentration 2.44141e-5 (unit not given)): 822.327 and 826.016 and 829.378
- MST normalized fluorescence signal (Fnorm) ([2]; concentration 4.88281e-5 (unit not given)): 822.531 and 826.781 and 828.529
- MST normalized fluorescence signal (Fnorm) ([2]; concentration 9.76563e-5 (unit not given)): 821.832 and 827.649 and 828.743
- MST normalized fluorescence signal (Fnorm) ([2]; concentration 0.000195313 (unit not given)): 821.404 and 825.833 and 828.951
- MST normalized fluorescence signal (Fnorm) ([2]; concentration 0.000390625 (unit not given)): 819.989 and 827.51 and 830.305
- MST normalized fluorescence signal (Fnorm) ([2]; concentration 0.00078125 (unit not given)): 822.464 and 828.227 and 831.061
- MST normalized fluorescence signal (Fnorm) ([2]; concentration 0.0015625 (unit not given)): 823.907 and 829.452 and 833.281
- MST normalized fluorescence signal (Fnorm) ([2]; concentration 0.003125 (unit not given)): 828.308 and 833.352 and 835.76
- MST normalized fluorescence signal (Fnorm) [2, 3]: 834.384 and 840.244 and 840.854
- MST normalized fluorescence signal (Fnorm) [2, 4]: 835.617 and 843.292 and 844.526
- MST normalized fluorescence signal (Fnorm) [2, 5]: 837.125 and 844.883 and 846.326
- MST normalized fluorescence signal (Fnorm) ([2]; concentration 0.05 (unit not given)): 838.274 and 844.594 and 846.629
